Results as given in US6331555A, “Treatment of platelet derived growth factor related disorders such as cancers” (priority 1999, dated 2001).
Several values for one entry are separate records, joined by “and”; a condition that tells them apart may be missing. Equal entries are not always repeated. Where two headings read alike, the source gives them in different places.

Key:
[1] = LD10; conditions: in vivo
[2] = tested on: C6 cells; assay: C6 SRB growth assay; type: cell-based, rat; conditions: for IC50: read-out: C6 SRB IC50
[3] = tested on: HER2; assay: Receptor tyrosine kinase inhibition, HER2; type: cell-based; conditions: read-out: HER2 IC50
Method: (§1) For western blotting, cells were plated in 2 mL growth medium into 6-well dishes (500,000 cells per well) and allowed to attach overnight. The medium was replaced with 2 mL MCDB 105 (UCSF Cell Culture Facility) supplemented with 1% FBS. The plates were then incubated overnight at 37° C., ambient CO2. […] After a 7 min incubation at room temperature with ligand, the plates were put on ice and washed three times with 1 mL ice-cold PBS plus 1 mM orthovanadate. Lysis was achieved by pipetting cells in 0.5 mL of buffer containing 50 mM Tris, pH 7.4, 10% glycerol, 1% NP-40, 2 mM EDTA, 1 mM sodium vanadate (Na3 VO4), 10 mM pyrophosphate, 1 mM PMSF, […]. A 300 μL aliquot of each lysate was immediately added to 100 μL 4×Laemmli sample buffer ([…] Tris pH 6.9, 20% glycerol, 7% SDS, 5 mM EDTA, 5% β-mercaptoethanol) containing phosphatase inhibitors, 2 mM Na3 VO4 and 10 mM pyrophosphate. Samples were boiled for 5 min, frozen in dry ice-ethanol, and stored at -80° C. Proteins were resolved by SDS-PAGE (Bio-Rad Miniprotean II) and transferred to nitrocellulose membrane (Schleicher & Schuell) at 120 volts for 1 hr at room temperature in buffer containing 25 mM Tris pH 8.3, 20% methanol, 0.2 M glycine, 0.1% SDS. The integrity of the protein-to-membrane transfer was determined by staining with 1% Ponceau S in 5% acetic acid for 5 min. After destaining in several distilled water rinses, the membrane was soaked overnight in blocking buffer containing 5% milk in Tris-buffered saline, 0.05% Tween 20. Phosphotyresine was detected by incubating the membrane (1 hr at room temperature) with an anti-phosphotyosine antiserum diluted in blocking buffer at 1:3000. For C6 cells, PDGF-β receptor content in the lysates was confirmed in duplicate sample lanes by western blotting using an antibody specific for PDGF-β receptor (UBI). The antibodies were visualized using ECL reagent from Amersham and by exposure to Fuji RX film.
(§2) For ELISA assays, cells were grown to 80-90% confluency in growth medium and seeded in 96-well tissue culture plates in 0.5% serum at 25,000 to 30,000 cells per well. After overnight incubation in 0.5% serum-containingmedium, cells were changed to serum-free medium and treated with test compound for 2 hr in a 5% CO2, 37° C. incubator. Cells were then stimulated with ligand for 5-10 min followed by lysis with HNTG (20 mM Hepes, 150 mM NaCl, 10% glycerol, 5 mM EDTA, 5 mM Na3 VO4 0.2% Triton X-100, and 2 mM NaPyr). Cell lysates (0.5 mg/well in PBS) were transferred to ELISA plates previously coated with receptor-specific antibody and which had been blocked with 5% milk in TBST (50 mM Tris-HCl pH 7.2, 150 mM NaCl and 0.1% Triton X-100) at room temperature for 30 min. Lysates were incubated with shaking for 1 hr at room temperature. The plates were washed with TBST four times and then incubated with polyclonol anti-phosphotyrosine antibody at room temperature for 30 min. Excess anti-phosphotyrosine antibody was removed by rinsing the plate with TBST four times. Goat anti-rabbit IgG antibody was added to the ELISA plate for 30 min at room temperature followed by rinsing with TBST four more times.
(§3) The ability of different compound to inhibit different receptor tyrosine kinases was tested.

[4] = target: T1, EGFR (Homo sapiens, UniProt P00533); assay: Receptor tyrosine kinase inhibition, EGFR; type: cell-based; conditions: read-out: EGFR ID50
T1 construct: expressed in transfected cells; host or cells: NIH3T3 mouse fibroblasts, retroviral vector
Method: as §1, §2, §3

[5] = target: T2, PDGF-R (U1242) (Homo sapiens, UniProt P09619); assay: U1242 kinase (PDGF-R activity); type: cell-based
T2 construct: U1242 (PDGF-β receptor); host or cells: U1242 MG glioma cells
Method: as §1, with “The medium was replaced with 2 mL MCDB 105 (UCSF Cell Culture Facility) supplemented with 1% FBS.” left out, “Proteins were resolved by SDS-PAGE (Bio-Rad Miniprotean II) and transferred to nitrocellulose membrane (Schleicher & Schuell) at 120 volts for 1 hr at room temperature in buffer containing 25 mM Tris pH 8.3, 20% methanol, 0.2 M glycine, 0.1% SDS.” left out, “For C6 cells, PDGF-β receptor content in the lysates was confirmed in duplicate sample lanes by western blotting using an antibody specific for PDGF-β receptor (UBI).” left out
(§4) For ELISA assays, cells were grown to 80-90% confluency in growth medium and seeded in 96-well tissue culture plates in 0.5% serum at 25,000 to 30,000 cells per well. After overnight incubation in 0.5% serum-containingmedium, cells were changed to serum-free medium and treated with test compound for 2 hr in a 5% CO2, 37° C. incubator. […] Lysates were incubated with shaking for 1 hr at room temperature. The plates were washed with TBST four times and then incubated with polyclonol anti-phosphotyrosine antibody at room temperature for 30 min. Excess anti-phosphotyrosine antibody was removed by rinsing the plate with TBST four times. Goat anti-rabbit IgG antibody was added to the ELISA plate for 30 min at room temperature followed by rinsing with TBST four more times.
PDGF-R activity, C6 SRB, and in vivo efficacy were measured using the procedures described in the appendices above.

[6] = tested on: C6 glioma cells; assay: C6 glioma SC xenograft in mice; type: in vivo
Method: (§5) Cell lines were grown in appropriate medium (see Appendix 1). Cells were harvested at or near confluency with 0.05% Trypsin-EDTA and pelleted at 450×g for 10 min. Pellets were resuspended in sterile PBS or media (without FBS) to a particular concentration and the cells were implanted into the hindflank of mice. Tumor growth was measured over 3 to 6 weeks using venier calipers. Tumor volumes were calculated as a product of length×width×height unless otherwise indicated. P values were calculated using the Students' t-test.
(§6) C6 and SKOV-3(T) cells were grown in culture, as described in "cell growth" above, and implanted into the hind flank of a female Balb/c nu/nu mouse at 3×10^6 cells (for C6 experiments), or 1×10^7 cells (for SKOV-3 experiments) in […] of PBS on Day 0. U87MG, U118MG or U373MG human glioblastoma cells (obtained from the ATCC), or A4312 were also implanted into athymic mice. […] Tumors were measured using venier calipers and tumor volume was calculated as a product of tumor length, width, and height.

[7] = C6 glioma SC xenograft in mice; type: in vivo; conditions: rat, in vivo, ip; for mortality at 240 h: 60 mg/kg (G24 at d10)
Method: as §5, §6

[8] = target: T3, FLK-1 (Mus musculus, UniProt P35918); assay: Receptor tyrosine kinase inhibition, FLK-1; type: cell-based; conditions: read-out: FLK-1 IC50
T3 construct: expressed in transfected cells; host or cells: NIH3T3 mouse fibroblasts, retroviral vector
Method: as §1, §2, §3

[9] = target: PDGFR (Homo sapiens, UniProt P09619); assay: Receptor tyrosine kinase inhibition, PDGFR; type: cell-based; parameters: U1242 (PDGF-β receptor); host or cells: U1242 glioma cells (ELISA); conditions: read-out: PDGFR IC50
Method: as §1, with “The medium was replaced with 2 mL MCDB 105 (UCSF Cell Culture Facility) supplemented with 1% FBS.” left out, “Proteins were resolved by SDS-PAGE (Bio-Rad Miniprotean II) and transferred to nitrocellulose membrane (Schleicher & Schuell) at 120 volts for 1 hr at room temperature in buffer containing 25 mM Tris pH 8.3, 20% methanol, 0.2 M glycine, 0.1% SDS.” left out, “For C6 cells, PDGF-β receptor content in the lysates was confirmed in duplicate sample lanes by western blotting using an antibody specific for PDGF-β receptor (UBI).” left out
as §4, §3

[10] = tested on: PDGFR; assay: Receptor tyrosine kinase inhibition, PDGFR; type: cell-based; conditions: W = done in Western assay; read-out: PDGFR IC50 (W)
Method: as §1, with “The medium was replaced with 2 mL MCDB 105 (UCSF Cell Culture Facility) supplemented with 1% FBS.” left out, “Proteins were resolved by SDS-PAGE (Bio-Rad Miniprotean II) and transferred to nitrocellulose membrane (Schleicher & Schuell) at 120 volts for 1 hr at room temperature in buffer containing 25 mM Tris pH 8.3, 20% methanol, 0.2 M glycine, 0.1% SDS.” left out, “For C6 cells, PDGF-β receptor content in the lysates was confirmed in duplicate sample lanes by western blotting using an antibody specific for PDGF-β receptor (UBI).” left out
as §4, §3

[11] = 40 mg/kg (J10 at d18, G24 at d15)
[12] = W = done in Western assay, read-out: U1242 KINASE IC50 (W)
[13] = Rattus norvegicus, C6 glioma, sc, at 40 mg/kg, read-out: C6 in vivo EFFICACY

T2 sequence (P09619 33-1106): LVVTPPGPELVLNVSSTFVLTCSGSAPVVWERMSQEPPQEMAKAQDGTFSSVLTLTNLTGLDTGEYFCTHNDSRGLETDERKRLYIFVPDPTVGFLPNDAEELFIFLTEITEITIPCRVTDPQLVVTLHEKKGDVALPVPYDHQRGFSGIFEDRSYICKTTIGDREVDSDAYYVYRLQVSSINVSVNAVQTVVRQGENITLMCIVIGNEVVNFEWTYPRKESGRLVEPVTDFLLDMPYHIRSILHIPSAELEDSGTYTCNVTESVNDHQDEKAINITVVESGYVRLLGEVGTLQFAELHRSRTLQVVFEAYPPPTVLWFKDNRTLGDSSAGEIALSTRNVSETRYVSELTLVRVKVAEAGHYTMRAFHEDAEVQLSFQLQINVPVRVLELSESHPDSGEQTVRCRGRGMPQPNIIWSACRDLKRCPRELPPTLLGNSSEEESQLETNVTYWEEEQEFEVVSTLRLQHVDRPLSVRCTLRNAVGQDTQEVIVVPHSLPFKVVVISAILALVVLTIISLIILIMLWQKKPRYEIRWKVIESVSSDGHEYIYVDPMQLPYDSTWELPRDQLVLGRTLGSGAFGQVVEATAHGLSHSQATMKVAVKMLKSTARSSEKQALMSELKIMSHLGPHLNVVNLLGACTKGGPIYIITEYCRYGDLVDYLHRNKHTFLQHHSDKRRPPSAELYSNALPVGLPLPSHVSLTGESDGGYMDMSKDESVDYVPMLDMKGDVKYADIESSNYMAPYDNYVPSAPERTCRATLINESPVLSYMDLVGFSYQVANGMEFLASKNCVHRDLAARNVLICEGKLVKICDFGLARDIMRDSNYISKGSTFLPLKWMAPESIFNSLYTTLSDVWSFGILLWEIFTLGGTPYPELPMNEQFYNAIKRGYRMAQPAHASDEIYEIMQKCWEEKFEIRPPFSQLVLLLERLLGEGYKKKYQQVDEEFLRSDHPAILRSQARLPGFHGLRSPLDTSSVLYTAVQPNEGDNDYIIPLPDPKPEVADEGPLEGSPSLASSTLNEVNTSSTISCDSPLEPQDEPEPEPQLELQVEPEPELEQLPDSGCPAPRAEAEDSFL
PDGFR (Homo sapiens, UniProt P09619), sequence (P09619 33-1106): as above
T3 sequence (P35918 20-1345): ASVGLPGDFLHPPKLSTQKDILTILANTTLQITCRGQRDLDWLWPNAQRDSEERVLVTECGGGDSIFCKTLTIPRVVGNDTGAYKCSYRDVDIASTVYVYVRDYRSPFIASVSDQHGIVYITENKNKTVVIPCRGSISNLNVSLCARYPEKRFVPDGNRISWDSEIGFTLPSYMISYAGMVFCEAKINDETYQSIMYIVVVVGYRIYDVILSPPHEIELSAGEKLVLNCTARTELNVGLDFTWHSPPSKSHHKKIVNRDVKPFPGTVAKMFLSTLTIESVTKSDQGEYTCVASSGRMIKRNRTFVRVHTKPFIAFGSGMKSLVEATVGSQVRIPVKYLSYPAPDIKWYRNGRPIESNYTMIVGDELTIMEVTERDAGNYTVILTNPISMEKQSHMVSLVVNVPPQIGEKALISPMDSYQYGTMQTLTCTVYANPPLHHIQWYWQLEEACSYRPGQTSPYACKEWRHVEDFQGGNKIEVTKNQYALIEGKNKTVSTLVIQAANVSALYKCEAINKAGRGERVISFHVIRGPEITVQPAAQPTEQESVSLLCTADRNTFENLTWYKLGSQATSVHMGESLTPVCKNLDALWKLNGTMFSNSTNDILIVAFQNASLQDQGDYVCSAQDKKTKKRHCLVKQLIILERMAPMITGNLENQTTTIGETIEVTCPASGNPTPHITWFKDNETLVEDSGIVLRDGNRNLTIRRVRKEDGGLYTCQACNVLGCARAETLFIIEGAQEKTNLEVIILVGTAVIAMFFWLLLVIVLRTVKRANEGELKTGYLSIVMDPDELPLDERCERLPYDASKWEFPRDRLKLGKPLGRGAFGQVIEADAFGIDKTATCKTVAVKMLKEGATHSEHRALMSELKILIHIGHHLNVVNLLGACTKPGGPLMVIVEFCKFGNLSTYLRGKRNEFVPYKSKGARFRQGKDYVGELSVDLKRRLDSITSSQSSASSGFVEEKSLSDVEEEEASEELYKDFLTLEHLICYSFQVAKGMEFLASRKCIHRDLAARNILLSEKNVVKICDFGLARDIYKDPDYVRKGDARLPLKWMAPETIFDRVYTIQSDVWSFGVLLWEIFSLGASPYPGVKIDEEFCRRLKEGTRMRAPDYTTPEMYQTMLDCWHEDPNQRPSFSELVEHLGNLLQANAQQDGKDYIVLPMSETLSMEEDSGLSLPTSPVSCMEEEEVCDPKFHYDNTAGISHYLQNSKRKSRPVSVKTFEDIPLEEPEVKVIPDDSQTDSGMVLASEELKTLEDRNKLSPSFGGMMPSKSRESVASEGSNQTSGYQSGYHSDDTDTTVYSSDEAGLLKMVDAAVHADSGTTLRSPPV
T1 sequence (P00533 25-1210): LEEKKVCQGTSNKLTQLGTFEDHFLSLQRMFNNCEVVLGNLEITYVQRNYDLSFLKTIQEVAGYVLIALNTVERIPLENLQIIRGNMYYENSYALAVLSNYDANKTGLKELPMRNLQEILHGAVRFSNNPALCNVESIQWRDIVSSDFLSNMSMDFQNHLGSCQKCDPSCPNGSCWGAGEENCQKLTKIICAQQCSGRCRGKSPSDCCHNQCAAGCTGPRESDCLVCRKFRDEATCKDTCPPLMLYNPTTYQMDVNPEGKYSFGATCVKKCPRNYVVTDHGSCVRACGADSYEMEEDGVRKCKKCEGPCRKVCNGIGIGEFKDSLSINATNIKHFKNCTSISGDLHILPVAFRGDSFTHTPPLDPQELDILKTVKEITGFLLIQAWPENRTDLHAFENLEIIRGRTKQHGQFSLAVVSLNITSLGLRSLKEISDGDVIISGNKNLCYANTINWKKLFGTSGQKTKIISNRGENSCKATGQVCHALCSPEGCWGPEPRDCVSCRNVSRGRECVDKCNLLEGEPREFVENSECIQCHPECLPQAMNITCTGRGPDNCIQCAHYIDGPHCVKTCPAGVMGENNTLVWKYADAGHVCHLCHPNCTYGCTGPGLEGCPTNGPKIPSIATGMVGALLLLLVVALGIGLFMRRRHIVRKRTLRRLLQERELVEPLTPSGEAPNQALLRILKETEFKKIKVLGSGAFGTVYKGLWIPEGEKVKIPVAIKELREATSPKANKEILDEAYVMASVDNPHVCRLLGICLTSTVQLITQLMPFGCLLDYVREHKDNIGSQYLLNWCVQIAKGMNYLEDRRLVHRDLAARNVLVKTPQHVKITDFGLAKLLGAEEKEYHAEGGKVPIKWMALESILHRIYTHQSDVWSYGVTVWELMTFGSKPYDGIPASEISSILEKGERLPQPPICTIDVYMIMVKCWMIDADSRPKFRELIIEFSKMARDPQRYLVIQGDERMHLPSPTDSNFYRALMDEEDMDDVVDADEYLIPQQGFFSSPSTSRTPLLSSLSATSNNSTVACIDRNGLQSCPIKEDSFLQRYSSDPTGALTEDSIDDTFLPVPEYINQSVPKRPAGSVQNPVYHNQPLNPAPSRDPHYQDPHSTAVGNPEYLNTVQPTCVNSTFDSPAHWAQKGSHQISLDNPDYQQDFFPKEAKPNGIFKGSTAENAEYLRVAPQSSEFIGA

SMILES	LD10 [1] [mg/kg]	IC50 ([2]; Rattus norvegicus, C6) [µM]	IC50 [3] [µM]	IC50 [4] [µM]	IC50 ([5]; read-out: U1242 KINASE IC50)	IC50 [8] [µM]	IC50 [9] [µM]	other results
Cc1noc(C)c1C(=O)Nc1ccc(C(F)(F)F)cc1 [Compound A13, N-trifluoromethlyphenyl 3,5-dimethylisoxazole-4-carboxamide]	> 200	> 25	–	–	–	–	–	inhibition at 25 µM ([2]; Rattus norvegicus, C6, at 25 μM): ~30%
Cc1cc2nc(-c3ccccc3)c(-c3ccc(O)c(O)c3)nc2cc1C [Compound G24]	> 200	–	> 50	> 100	0.6 µM and 5 µM	9.3	5	C6 in vivo EFFICACY ([6]; at 20 mg/kg): no effect; C6 in vivo EFFICACY ([6]; at 40 mg/kg): no effect; C6 in vivo EFFICACY ([6]; at 60 mg/kg): no effect; mortality ([7]; 20 mg/kg): 0%; mortality [7, 11]: 12.5%; mortality at 240 h [7]: 100%
Cc1cc2nc(C(=O)O)c(-c3ccccc3)nc2cc1C [Compound G25]	–	50	> 50	> 50	1 µM	> 50	0.9	–
Cc1cc2ncc(Nc3cccc(I)c3)nc2cc1C [Compound G29]	–	> 13	34	< 0.8	23.2 µM	10	23	–
Cc1cc2ncc(Nc3ccc(I)cc3)nc2cc1C [Compound G30]	–	2	34	> 100	32.5 µM	10	32	–
CC1c2nc3ccccc3c(=O)n2C(c2ccc(O)c(O)c2)N1Cc1ccccc1 (stereo not drawn) [Compound H10]	75	13	–	–	> 50 µM	> 50	–	IC50 [10]: 25 µM; IC50 [5, 12]: 25 µM; inhibition in vivo at 30 mg/kg ([6]; Rattus norvegicus, C6 glioma, sc, at 30 mg/kg, read-out: C6 in vivo EFFICACY): 52%; mortality at 408 h ([7]; 30 mg/kg, at d17): 14.3%
CC1c2nc3ccccc3c(=O)n2C(c2ccc(O)cc2)N1Cc1ccccc1 (stereo not drawn) [Compound H13]	> 400	20	–	–	> 50 µM	–	–	inhibition in vivo at 40 mg/kg [6, 13]: 0%; inhibition in vivo at 100 mg/kg ([6]; Rattus norvegicus, C6 glioma, sc, at 100 mg/kg, read-out: C6 in vivo EFFICACY): 41%; mortality [7, 11]: 0%; mortality at 192 h ([7]; 100 mg/kg (E15 at d8)): 0%; IC50 [2]: 10.5 µM
N#CC(=Cc1cc(O)c(O)c(Br)c1)S(=O)(=O)C(C#N)=Cc1cc(O)c(O)c(Br)c1 [Compound J10]	171	12	> 100	> 100	> 50 µM	–	–	IC50 [10]: 1 µM; IC50 [5, 12]: 1 µM; inhibition in vivo at 40 mg/kg [6, 13]: 73%; mortality [7, 11]: 100%
N#CCS(=O)(=O)C(C#N)=Cc1cc(O)c(O)c(Br)c1 [Compound J11]	–	14	> 50	> 100	3.1 µM	> 25	3	–
COc1cc2ncnc(Nc3ccccc3)c2cc1OC [Compound P14]	–	–	10	> 50	–	> 200	26	–
COCCCN1C(=O)SC(=Cc2ccccc2Cl)C1=O [Compound P15]	–	–	> 50	> 100	–	> 50	46	–
COc1cc(C=C(C#N)C(=O)NCCCc2ccccc2)cc(I)c1O [Compound P16]	> 400	17	–	–	–	–	–	C6 in vivo EFFICACY ([6]; at 60 mg/kg): no effect; mortality at 240 h [7]: 0%
COc1cc2ncnc(N3CCc4ccccc43)c2cc1OC [Compound P17]	> 100	12	–	–	–	–	–	–
